What was measured:
[1] = biological target: T1, 20S immuno-proteasomes from human B-LCL cell line (JY) (Homo sapiens, UniProt P28062+P28065+P40306); assay: In vitro proteasome mediated digestion of 30-mers, mass spectrometry, immunoproteasome JY; assay type: biochemical; conditions: 30 residue long precursor peptides
T1 construct: purified from a mouse B-cell line (RMA) and a human B-LCL cell line (JY); endogenous in cells; host or cells: B-LCL JY cells; 20S proteasome purified from them
Method: (§1) In the context of the invention, “being inefficiently processed by a proteasome” preferably means that within the first hour of digestion by a proteasome less than 1% of total digested peptide is found. The processing by a proteasome is preferably assessed by incubating a purified proteasome, more preferably a human proteasome with a peptide comprising the potential CTL epitope (30 amino acid length approximately) in a proteasome digestion buffer during at least one hour at 37° C. The reaction is subsequently stopped by adding trifluoroacetic acid. Analysis of the digested peptides is performed with electrospray ionization mass spectrometry (see example 1). Even more preferably, the human proteasome is an immunoproteasome from B-LCL JY cells (Kessler J H et al. 2001).
(§2) 20S immuno-proteasomes were purified from a mouse B-cell line (RMA) and a human B-LCL cell line (JY) and 20S household proteasomes were purified from human tumor cell line (HeLa) as described (Kessler J H et al 2001). To assess kinetics, digestions were performed with different incubation periods as indicated. Briefly, peptides containing the (potential) CTL epitopes (30 mers, 20 μg) were incubated with 1 μg of purified proteasome at 37° C. for 1 h, 4 h and 24 h in 300 μl proteasome digestion buffer, trifluoroacetic acid (30 μl) was added to stop the digestion and samples were stored at −20° C. before mass spectrometric analysis. Electrospray ionization mass spectrometry was performed on a hybrid quadrupole time-of-flight mass spectromter, a Q-TOF (Micromass), equipped with an on-line nanoelectrospray interface with an approximate flow rate of […] as described (Kessler J H et al 2001). The peaks in the mass spectrum were searched in the digested precursor peptide using the Biolynx/proteins software (Micromass) supplied with the mass spectrometer. The intensity of the peaks in the mass spectra was used to establish the relative amounts of peptides generated after proteasome digestion. The relative amounts of the peptides are given as a percentage of the total amount of peptide digested by the proteasome at the indicated incubation time. Major cleavage sites are defined as more than >1% of total digested peptide within the first hour.

[2] = biological target: T2, 20S immuno-proteasomes from mouse B-cell line (RMA) (Mus musculus, UniProt O35955+P28063+P28076); assay: In vitro proteasome mediated digestion of 30-mers, mass spectrometry, immunoproteasome RMA; assay type: biochemical; conditions: 30 residue long precursor peptides
T2 construct: 20S immuno-proteasomes were purified from a mouse B-cell line (RMA); endogenous in cells; host or cells: RMA cells; 20S proteasome purified from them
Method: as §1, §2

[3] = biological target: HLA-A*0201 (Homo sapiens, UniProt P04439, D140Y/D185E/D98H/E176V/E277Q/G131W/G231S/I119V/I121R/I166T/I218V/L300P/L318F/N151K/N90K/P208A/P217A/Q86G/Q94H/R138H/R169H/T345S); assay: Peptide stabilization for HLA-A*0201; assay type: binding
[4] = biological target: T3, 20S household proteasomes from human tumor cell line (HeLa) (Homo sapiens, UniProt P28072+P28074+Q99436); assay: In vitro proteasome mediated digestion of 30-mers, mass spectrometry, household proteasome HeLa; assay type: biochemical; conditions: 30 residue long precursor peptides
T3 construct: 20S household proteasomes were purified from human tumor cell line (HeLa); endogenous in cells; host or cells: HeLa cells; 20S proteasome purified from them
Method: as §1, §2

[5] = system: HLA-A*2401; assay: Stability of peptide-HLA complex, binding at 4° C. and 20° C., HLA-A*2401; design: species or system human; conditions: for Peptide Binding Stability: HLA-A*2401, IC50 at 20° C. vs 4° C.
Method: Stability of other peptide-HLA complexes was preferably determined as follows. […] Peptides of >50% of the initial complexes was lost within 2 hours were considered unstable. […] The rest was designated as unstable peptide binding.
Peptides 8-11 residues in length were selected based on typical anchor residues for HLA-A*0101, A*0301, A*1101 and HLA-A*2401 (Rammensee H G et al). The capacity of peptides to bind was tested in a competition based cellular binding assay as previously described (van der Burg S H et al 1995). FL-labeled reference peptides were synthesized as Cys-derivative (van der Burg S H et al 1995). Fluorescence labeled reference peptides used were: YLEPAC(FL)AK (SEQ ID NO: 87) (HLA-A*0101) and KVFPC(FL)ALINK (SEQ ID NO: 88) (HLA-A*1101) (Sette A et al), KVFPC(FL)ALINK (SEQ ID NO: 89) (HLAA*0301) (van der Burg S H et al 1995) and RYLKC(FL)QQLL (SEQ ID NO: 90) (A*2401) (Dai L C et al). B-cell lines used are: CAA (A*0101), EKR (A*0301), BVR (A*1101), VIJF (A*2401). The relative binding capacity of the peptides is expressed as the peptide concentration to inhibit 50% (1050) of the binding of the reference peptide. […] Peptide stabilization for HLA-A*0201 was performed as previously described (van der Burg S H et al, 1996). Peptides of >50% of the initial complexes was lost within 2 hours were considered unstable. Stability of other peptide-HLA complexes was determined as follows. Peptide binding was performed at 4° C. and 20° C. and 1050 were determined. […] The rest was designated as unstable peptide binding.

[6] = system: HLA-A*2401; assay: Competition based cellular binding assay, HLA-A*2401 (B-cell line VIJF); design: species or system human; conditions: for Peptide Binding Affinity: HLA-A*2401, IC50 category
[7] = biological target: T4, HLA-A*0301 (Homo sapiens, UniProt P04439); assay: Stability of peptide-HLA complex, binding at 4° C. and 20° C., HLA-A*0301
T4 construct: B-cell lines used are: CAA (A*0101), EKR (A*0301), BVR (A*1101), VIJF (A*2401); endogenous in cells; host or cells: B-cell line EKR
In short: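 Competition binding used B-cell lines CAA (A*0101), EKR (A*0301), BVR (A*1101) and VIJF (A*2401) against fluorescein-labelled reference peptides. IC50 is the peptide concentration inhibiting 50% of reference binding. Binding was run at 4 °C and 20 °C with IC50 determined at each; complexes losing >50% within 2 hours were deemed unstable.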

[8] = biological target: T5, HLA-A*0101 (Homo sapiens, UniProt P04439, A114D/A174V/A182V/D101N/D185E/E176A/E190D/L180R/Q94H/R68K/S129P/T187R/V100A/V91M/W191G); assay: Stability of peptide-HLA complex, binding at 4° C. and 20° C., HLA-A*0101; conditions: for HLA binding Stability (Table 5): HLA type A1; for Peptide Binding Stability: HLA-A*0101, IC50 at 20° C. vs 4° C.
T5 construct: B-cell lines used are: CAA (A*0101), EKR (A*0301), BVR (A*1101), VIJF (A*2401); endogenous in cells; host or cells: B-cell line CAA

| SMILES | Proteasomal Cleavage of C-terminus, IP (JY) [1] | Proteasomal Cleavage of C-terminus, IP (RMA) [2] | HLA binding Stability (Table 5) ([3]; HLA type A2, value in hours) [h] | Peptide Binding Stability ([3]; HLA-A*0201, p53 peptides) [h] | Proteasomal Cleavage of C-terminus, HH (HeLa) [4] | Peptide Binding Stability [5] | Peptide Binding Affinity [6] | HLA binding Stability (Table 5) ([7]; HLA type A3) | Peptide Binding Stability ([7]; HLA-A*0301, IC50 at 20° C. vs 4° C.) | HLA binding Stability (Table 5) [8] | Peptide Binding Stability [8] | HLA binding Stability (Table 5) ([5]; HLA type A24) | HLA binding Affinity (Table 5) ([6]; HLA type A24) |
| --- | --- | --- | --- | --- | --- | --- | --- | --- | --- | --- | --- | --- | --- |
| CC(C)C[C@H](NC(=O)[C@@H](N)Cc1ccccc1)C(=O)N[C@@H](Cc1c[nH]cn1)C(=O)N[C@@H](CO)C(=O)NCC(=O)N[C@H](C(=O)N[C@@H](C)C(=O)N[C@@H](CCCCN)C(=O)N[C@@H](CO)C(=O)N[C@H](C(=O)O)C(C)C)[C@@H](C)O [p53 113-122] | + (Major cleavage sites are defined as more than >1% of total digested peptide within the first hour) | + (Major cleavage sites are defined as more than >1% of total digested peptide within the first hour) | 6 | 6 | + (Major cleavage sites are defined as more than >1% of total digested peptide within the first hour) | – | – | – | – | – | – | – | – |
| CC(C)C[C@H](NC(=O)[C@H](CC(C)C)NC(=O)[C@H](CCCCN)NC(=O)[C@H](Cc1c[nH]c2ccccc12)NC(=O)[C@H](CC(C)C)NC(=O)[C@H](CC(=O)O)NC(=O)[C@H](CO)NC(=O)[C@H](Cc1ccccc1)NC(=O)[C@@H](N)[C@@H](C)O)C(=O)O [p53 18-26] | + (Major cleavage sites are defined as more than >1% of total digested peptide within the first hour) | + (Major cleavage sites are defined as more than >1% of total digested peptide within the first hour) | – | – | + (Major cleavage sites are defined as more than >1% of total digested peptide within the first hour) | + (Stable peptides displayed IC50 at 20 °C that deviated <2 times of the IC50 at 4° C.) | high | – | – | – | – | – | – |
| CC(C)[C@H](NC(=O)[C@H](CO)NC(=O)[C@H](CCCCN)NC(=O)[C@H](C)NC(=O)[C@@H](NC(=O)CN)[C@@H](C)O)C(=O)N[C@H](C(=O)N[C@@H](CS)C(=O)N[C@H](C(=O)N[C@@H](Cc1ccc(O)cc1)C(=O)O)[C@@H](C)O)[C@@H](C)O [p53 117-126] | – | – | – | – | – | – | – | − (The rest was designated as unstable peptide binding.) | − (The rest was designated as unstable peptide binding.) | + (Stable peptides displayed IC50 at 20 °C that deviated <2 times of the IC50 at 4° C.) | + (Stable peptides displayed IC50 at 20 °C that deviated <2 times of the IC50 at 4° C.) | – | – |
| CC(C)C[C@H](NC(=O)[C@H](CC(N)=O)NC(=O)CNC(=O)[C@H](CCC(=O)O)NC(=O)[C@@H](NC(=O)[C@@H](N)CCCNC(=N)N)C(C)C)C(=O)N[C@@H](CCCNC(=N)N)C(=O)N[C@H](C(=O)N[C@@H](CCC(=O)O)C(=O)N[C@@H](Cc1ccc(O)cc1)C(=O)O)C(C)C [p53 196-205] | – | – | – | – | – | – | – | – | – | + (Stable peptides displayed IC50 at 20 °C that deviated <2 times of the IC50 at 4° C.) | + (Stable peptides displayed IC50 at 20 °C that deviated <2 times of the IC50 at 4° C.) | – | – |
| CC(C)C[C@H](NC(=O)[C@H](CCCNC(=N)N)NC(=O)[C@H](Cc1ccccc1)NC(=O)CNC(=O)[C@H](Cc1ccc(O)cc1)NC(=O)[C@@H](N)CO)C(=O)NCC(=O)N[C@@H](Cc1ccccc1)C(=O)O [p53 106-113] | + (Major cleavage sites are defined as more than >1% of total digested peptide within the first hour) | + (Major cleavage sites are defined as more than >1% of total digested peptide within the first hour) | – | – | + (Major cleavage sites are defined as more than >1% of total digested peptide within the first hour) | + (Stable peptides displayed IC50 at 20 °C that deviated <2 times of the IC50 at 4° C.) | high | – | – | – | – | – | – |
| CC(C)C[C@H](NC(=O)[C@H](CCCNC(=N)N)NC(=O)[C@H](Cc1ccccc1)NC(=O)CNC(=O)[C@H](Cc1ccc(O)cc1)NC(=O)[C@H](CO)NC(=O)CNC(=O)[C@H](CCC(N)=O)NC(=O)[C@H](Cc1ccc(O)cc1)NC(=O)[C@@H](N)[C@@H](C)O)C(=O)O [p53 102-111] | + (Major cleavage sites are defined as more than >1% of total digested peptide within the first hour) | + (Major cleavage sites are defined as more than >1% of total digested peptide within the first hour) | – | – | + (Major cleavage sites are defined as more than >1% of total digested peptide within the first hour) | + (Stable peptides displayed IC50 at 20 °C that deviated <2 times of the IC50 at 4° C.) | high | – | – | – | – | – | – |
| CC(C)C[C@H](NC(=O)[C@H](Cc1ccccc1)NC(=O)CNC(=O)[C@H](CC(C)C)NC(=O)[C@H](CCCNC(=N)N)NC(=O)[C@H](Cc1ccccc1)NC(=O)CNC(=O)[C@H](Cc1ccc(O)cc1)NC(=O)[C@@H](N)CO)C(=O)O [p53 106-114] | + (Major cleavage sites are defined as more than >1% of total digested peptide within the first hour) | + (Major cleavage sites are defined as more than >1% of total digested peptide within the first hour) | – | – | + (Major cleavage sites are defined as more than >1% of total digested peptide within the first hour) | +/− (Peptides that displayed IC50 at 20 °C of more than twice the IC50 at 4 °C but IC50 < 15 μM were considered to bind with intermediate stability.) | high | – | – | – | – | +/− (Peptides that displayed IC50 at 20 °C of more than twice the IC50 at 4 °C but IC50 < 15 μM were considered to bind with intermediate stability.) | high |

Reference: patent US8663646B2, “P53 peptide vaccine” (priority 2007, dated 2014)
